Test results: patent US20170119899A1, “COMPOSITIONS AND METHODS FOR TREATMENT OF PEROXISOMAL DISORDERS AND LEUKODYSTROPHIES” (The Johns Hopkins University, priority 2015, published 2017)

Experiments:
[1] = Solubility and stability; assay type: physicochemical
[2] = test system: cells from X-ALD patients and X-ALD knockout mice; conditions: cited from earlier work
[3] = test system: primary fibroblasts from male patients with cerebral ALD or AMN; test: LysoPC C26/C22 ratio in ALD/AMN patient-derived fibroblasts; assay type: cell-based, human; conditions: 100 μM free 4PBA
Procedure: Primary fibroblasts from male patients with either cerebral adrenoleukodystrophy (ALD) or adrenomyeloneuropathy (AMN) phenotype were thawed and plated in wells to grow for 4 days. On the 4th day cells were treated with various doses of Dendrimer-4phenylbutyrate (D4PBA) or free 4PBA and maintained in the culture, the treatment was refreshed on Day 7. Cells were harvested for analysis on Day 11. The C26:0, C22:0, and C20:0 very long chain fatty acid fraction of lysophosphatidyl choline (LysoPC) was measured in the harvested cells and the Lyso PC C26/C22 fraction was then calculated as a measure of impaired peroxisomal beta-oxidation.

[4] = test system: TNF-alpha; test: VLCFA-induced TNF-alpha in patient-derived macrophages treated with D4PBA; assay type: cell-based, human; conditions: 300 micromolar; controls, cerebral ALD and AMN patients
Procedure: In a further experiment, peripheral blood mononucleocytes were derived from a cerebral ALD patient, two AMN and one control subject differentiated in culture using same protocol as above for D-NAC therapy. On day 3, cells were treated with various doses of D4-PBA, and then again on day 5, and day 7. On day 7, macrophages were again stimulated with very long chain fatty acids (VLCFA) as in the D-NAC macrophage study mentioned above. Cells were then harvested at 6 h after stimulation.

[5] = three boys, 140 mg/kg/day i.v. then 70 mg/kg four times daily orally; cited from earlier work
[6] = test system: X-ALD mice; conditions: mouse, in vivo; cited from earlier work
[7] = mouse, in vivo; cited from earlier work
[8] = in vivo; cited from earlier work
[9] = in vivo; cited from earlier work; remark: listed apart in the source

CC(C)(Oc1ccc(CCNC(=O)c2ccc(Cl)cc2)cc1)C(=O)O [Bezafibrate]
Water solubility [1]: water insoluble

O=C(O)CCCc1ccccc1 [Free 4PBA, 4-phenyl butyric acid]
Water solubility [1]: water insoluble | Very-long-chain fatty acid levels and beta-oxidation [2]: decreased levels of and increased beta-oxidation of very-long-chain fatty acids | LysoPC C26/C22 ratio, free drug [3]: no effect | VLCFA-induced TNF-alpha response, free drug [4]: reduced the VLCFA-induced TNF-alpha response

CC(=O)N[C@@H](CS)C(=O)O [NAC, N-acetyl-L-cysteine]
MRI progression in advanced ccALD [5]: slowing of MRI progression and reversal of gadolinium-contrast enhancement on MRI

Oc1ccc(C=Cc2cc(O)cc(O)c2)cc1 [Resveratrol]
Redox homeostasis, mitochondrial respiration, axonal degeneration, locomotor disabilities [6]: normalize redox homeostasis, mitochondrial respiration, bioenergetic failure, axonal degeneration and associated locomotor disabilities in the X-ALD mice

C[C@@H]1C[C@H]2[C@@H]3CCC4=CC(=O)C=C[C@]4(C)C3=CC[C@]2(C)[C@@]1(O)C(=O)CO [VBP15]
Muscular dystrophy [7]: improves muscular dystrophy without side effects

Cc1cc(OCC(=O)O)cc(C)c1Cc1ccc(O)c(C(C)C)c1 [sobetirome]
Plasma LDL cholesterol and triglycerides in humans [8]: lowers plasma LDL cholesterol and reduces plasma triglycerides | Serum lipids and cholesterol in animal models [9]: reduced serum lipids, decreased cholesterol levels
